Assay results as given in patent publication US20030134859A1 (SANKYO COMPANY, LIMITED, priority 2000, published 2003).

Test system: ABCA1 mRNA
Test: Quantitative analysis of ABCA1 mRNA (TaqMan PCR) in RAW264.7 cells
Assay type: cell-based, mouse
Settings: 100 nM test compound, 24 hr, normalised to β-actin, DMSO = 100
Method: The mouse monocyte/macrophage cell line, RAW264.7 (ATCC TIB71) was purchased from Dainippon Pharmaceutical Co., Ltd. As the medium, the Dulbecco's modified Eagle's medium (DMEM medium; GIBCO, Cat. No. 11995-040) containing bovine fetal serum (the final concentration: 10% (v/v), MOREGATE, lot No. 474030), penicillin G (the final concentration: 50 units/mL, GIBCO) and streptomycin (the final concentration: 20 μg/mL, GIBCO) was used.
The culture of RAW264.7 cells was carried out in a CO2 incubator (37° C., 95% R.H., 5% of CO2).
A 2 ml volume of RAW264.7 cells suspension (1×10^6 cells/mL) was plated in each well of a 6-well plate (2×10^6 cells/well) and the cells were incubated for 2 hr in a CO2 incubator. The test compounds dissolved in DMSO were diluted with DMEM medium by 20 times, and were added to the wells at a volume of 4 μL/well (final concentration of the test compound: 100 nM). As the control, the DMSO solution was diluted with the DMEM medium by 20 times, and was added to the wells at the volume of 4 μL/well. After the cells were cultured in a CO2 incubator for 24 hr, the medium was removed and the total RNA was purified by using an RNeasy Mini Kit (Qiagen), according to the protocol attached. The concentration of the RNA in the samples obtained was calculated from absorbance at 260 nm (A260=1=40 μg/ml). Six (6) μg of total RNA were diluted with RNAase-free water so as to be 22.6 μL, which was heated at 65° C. for 10 min, and then was cooled on ice. The RNA in the solution was used as the template, and the cDNA was synthesized by using a First-strand cDNA Synthesis Kit (Amersham Pharmacia Biotech). In this reaction, a solution was prepared having the following composition and was reacted at 37° C. for 1 hr.
After the reaction, 3 μL of soution were collected from each of the reaction mixtures of the test compound-treated cell samples and that of the control cell samples. The mixed solution was used as the standard solution. The standard solution and each reaction solution were purified with a Chroma Spin-100+DEPC-H2O Column according to the protocol attached, and they were used as the template for TaqMan PCR (Template). In order to draw the calibration curve, the standard solution was diluted by every 5 times for 5 steps and each solution was used for TaqMan PCR. TaqMan PCR was carried out in ABCA1 and β-actin. As Primers for use in the TaqMan PCR, 4 oligonucleotides (abca1 forward (S3), abca1 reverse (AS3), β-actin forward (S4) and β-actin reverse (AS4)) were designed which are shown in sequences No. 5 to 8 in the sequence table described later. The synthesis and purification of these 4 oligomers was ordered from Amersham Pharmacia Biotech Co.
As FAM-TAMRA labelled TaqMan Probe, 2 kinds of oligonucleotides (abca1 (p1) and β-actin (p2)) were designed and were ordered from Applied Biosystems Co. to synthesize and purify.
The following reaction mixture of ABCA1 or β-actin was divided into 2 wells of a MicroAmp Optical 96-well Reaction Plate (Applied Biosystem Co.). TaqMan Universal PCR Master Mix was purchased from Applied Biosystem Co.
The plate was covered with a MicroAmp Optical Cap (Applied Biosystems Co.), and TaqMan PCR was carried out by using an ABI PRISM 7,700 Sequence Detection System (Applied Biosystem Co.) under the following conditions:
An analysis was made according to the procedures described in the manual of Sequence Detection Software (Applied Biosystem Co.) and the increased rate of ABCA1 mRNA due to the test compound was calculated based on the following equation.
A: Amount of the ABCA1 mRNA in the presence of the test compound
B: Amount of the β-actin mRNA in the presence of the test compound
C: Amount of the ABCA1 mRNA in the presence of DMSO
D: Amount of the β-actin mRNA in the presence of DMSO
Increase Rate (%) of ABCA1 mRNA=(A/B)/(C/D)×100

Row | SMILES | Rate of Increase (%) of ABCA1 mRNA [%]
1 | CCCCCCCCN(CCCC)c1ccc(-c2ccc(NC(=O)c3cc([N+](=O)[O-])ccc3Cl)cc2)cc1.Cl [Example 223, N-[4-[4-(N-Butyl-N-octylamino)phenyl]phenyl]-(2-chloro-5-nitrophenyl)carboxamide mono-hydrochloride] | 204.0
2 | CCCCCCCCN(CCC)c1ccc(-c2ccc(NC(=O)c3cc([N+](=O)[O-])ccc3Cl)cc2)cc1 [Example 224, N-[4-[4-(N-Octyl-N-propylamino)phenyl]phenyl]-(2-chloro-5-nitrophenyl)carboxamide] | 179.0
3 | O=C(Nc1ccc(CCNC(=S)Nc2cccnc2)cc1)c1cc([N+](=O)[O-])ccc1Cl [Example 273, N-[4-[2-(Pyridin-3-yl)aminothiocarbonylaminoethyl]phenyl]-(2-chloro-5-nitrophenyl)carboxamide] | 146.0
